Data: the supplement of paper PMC10307832

How the values were obtained:
Experiment in all cases: relative viability (nuclei count vs DMSO), 5 days (fraction); higher = more cells survive
Halofuginone + Dasatinib = compound: O=C(C[C@H]1NCCC[C@@H]1O)Cn1cnc2cc(Br)c(Cl)cc2c1=O (racemic) [Halofuginone] + Cc1nc(Nc2ncc(C(=O)Nc3c(C)cccc3Cl)s2)cc(N2CCN(CCO)CC2)n1 [Dasatinib] (partner 0.075 µM)
Method in brief: (§1)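 Relative viability equals treated-well nuclei counts divided by vehicle-well nuclei counts. Counts came from 4× images of lung cancer cell lines grown in 1536-well plates for 5 days after pin-tool dosing on the day after seeding. Dosing used one drug alone or a fixed anchor-drug dose plus five library-drug doses (not always all listed) in √10 steps, and values are medians of duplicate plates.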

Decitabine + Trametinib = compound: Nc1ncn([C@H]2C[C@H](O)[C@@H](CO)O2)c(=O)n1 [Decitabine] + CC(=O)Nc1cccc(-n2c(=O)n(C3CC3)c(=O)c3c(Nc4ccc(I)cc4F)n(C)c(=O)c(C)c32)c1 [Trametinib] (partner 0.02 µM)
Method in brief: as §1

Decitabine + Lapatinib = compound: Nc1ncn([C@H]2C[C@H](O)[C@@H](CO)O2)c(=O)n1 [Decitabine] + CS(=O)(=O)CCNCc1ccc(-c2ccc3ncnc(Nc4ccc(OCc5cccc(F)c5)c(Cl)c4)c3c2)o1 [Lapatinib] (partner 2 µM)
Method in brief: as §1

[1] = compound: O=C(C[C@H]1NCCC[C@@H]1O)Cn1cnc2cc(Br)c(Cl)cc2c1=O (racemic) [Halofuginone] + CS(=O)(=O)N1CCN(Cc2cc3nc(-c4cccc5[nH]ncc45)nc(N4CCOCC4)c3s2)CC1 [Pictilisib] (partner 1 µM)
Method in brief: as §1

## UMC-11
Halofuginone + Dasatinib; first compound 0.001 µM
  relative viability: 0.472
Halofuginone + Dasatinib; first compound 0.003162 µM
  relative viability: 0.427
Halofuginone + Dasatinib; first compound 0.01 µM
  relative viability: 0.407
Halofuginone + Dasatinib; first compound 0.03162 µM
  relative viability: 0.357
Halofuginone + Dasatinib; first compound 0.1 µM
  relative viability: 0.293
Decitabine + Trametinib; first compound 0.04 µM
  relative viability: 0.697
Decitabine + Trametinib; first compound 0.1265 µM
  relative viability: 0.609
Decitabine + Trametinib; first compound 0.4 µM
  relative viability: 0.4
Decitabine + Trametinib; first compound 1.265 µM
  relative viability: 0.331
Decitabine + Trametinib; first compound 4 µM
  relative viability: 0.367
Decitabine + Lapatinib; first compound 0.04 µM
  relative viability: 0.877
Decitabine + Lapatinib; first compound 0.1265 µM
  relative viability: 0.832
Decitabine + Lapatinib; first compound 0.4 µM
  relative viability: 0.434
Decitabine + Lapatinib; first compound 1.265 µM
  relative viability: 0.357
Decitabine + Lapatinib; first compound 4 µM
  relative viability: 0.346
[1]; first compound 0.001 µM
  relative viability: 0.9
[1]; first compound 0.003162 µM
  relative viability: 0.76
[1]; first compound 0.01 µM
  relative viability: 0.772
[1]; first compound 0.03162 µM
  relative viability: 0.758
[1]; first compound 0.1 µM
  relative viability: 0.648
